From patent publication US20060166182A1, “Tissue and organ preservation, protection and resuscitation” (The Board of Trustees of the University of Ilinois a body …, priority 2002, published 2006)

System: dogs
Test: Myocardial tissue oxygen pressure and pH during cardiac (ventricular) fibrillation in bupivacaine and sham treated dogs
Format: in vivo, dog
Description: Non-purpose bred male hounds (22-26 kg) were used. Dogs were fasted overnight. On the day of the example, the dog was anesthetized with 5 mg/kg propofol, intubated and ventilated with 1.5% isoflurane and inspired oxygen concentration of 30%. Catheters were inserted into the femoral artery for blood pressure recording and blood gas sampling, and the femoral vein for fluid and drug administration. Sterile saline was infused intravenously (4 ml·kg^−1·hr^−1) for fluid maintenance.
An incision was made along the left 5th intercostal space and the left ventricle exposed. A Paratrend tissue probe (Codman Inc, Newark, N.J.) was calibrated on the day of the study using precision gases. The probe was 0.5 mm in diameter and 2 sensors measuring myocardial tissue oxygen pressure (PmO2) and myocardial pH (pHm) were contained in the final 2 cm. The void surrounding the pHm sensor was filled with acrylamide gel containing phenol red. Changes in hydrogen ion concentration produce color changes in phenol red, which can be detected by the pH fiber optic sensor. A fluorescence method was used to measure the partial pressure of dissolved or gaseous oxygen for the fiber optic PmO2 sensor. The 0%-90% response times for the PmO2 and pHm sensors were 78 s and 70 s, respectively. The probe was inserted into the myocardium in the region between the first and second diagonal branch of the left anterior descending coronary artery, parallel to the surface of the heart 6 mm below the surface using an 18 gauge angiocatheter as an introducer. Mechanical ventilation was adjusted to maintain arterial pCO2 at 35±2 mmHg and inspired oxygen concentration was maintained at 30%, with the balance nitrogen. Body temperature was maintained at 38° C. using a warming pad.
After equilibration of the myocardial tissue probe for 45 minutes, baseline measures of mean arterial pressure (MAP), heart rate, pmO2 and pHm were recorded and an arterial blood gas sample was measured. Each dog received an intravenous infusion of 10 mg/kg bupivacaine over 10 seconds. […] In a preliminary study (early lipid, EL), intervention at the onset of circulatory collapse included an intravenous infusion of either soy lipid emulsion (Intralipid 20%, Fresenius Kabi Clayton, Clayton, N.C.) n=3, or saline, n=3, each administered as a 4 ml/kg bolus (over 2 minutes), followed by a continuous infusion of 0.5 ml·kg^−1·min^−1 for 10 minutes. The protocol was subsequently modified to better simulate a clinical setting, where the start of the infusion might be delayed by several minutes. In this protocol (delayed lipid, DL), internal cardiac massage alone was continued for 10 minutes, then infusion of either the lipid emulsion (n=6) or saline (n=6) was begun as described above. If sinus rhythm returned, internal cardiac massage was continued until MAP reached 30 mmHg and recovery measures of pmO2 and pHm were recorded when blood pressure returned to within 10% of baseline levels. Dogs were killed at the end of the study using a euthanasia solution. The investigators were not blinded to treatment arm.
Data are reported for the DL experiments as mean±SD. pmO2 and pHm were compared between baseline and subsequent treatments within each group using repeated measures analysis of variance with Tukey's tests for post-hoc comparisons. Differences between groups for each treatment were compared by Student's t-test. The proportion of animals surviving bupivacaine challenge in each group was compared in the DL experiment using a z-test. Significance was taken as p<0.05.
There were no significant differences between groups. […] Tissue pH decreased a similar amount in half the time in sham treated dogs, and the rate of pH decrease was greater in these dogs compared to bupivacaine treated dogs.
In four dogs per group, PmO2 and pHm were allowed to decrease for 15 minutes of cardiac fibrillation at the end of the study.

[1] = dogs made hypotensive by treatment with bupivacaine
[2] = during cardiac fibrillation, mean ± SD
[3] = during cardiac fibrillation, mean ± SD, P < 0.05 compared to sham

cardiac tissue pO2 (intramyocardial probe) [1]: undetectable
SMILES: CCCCN1CCCCC1C(=O)Nc1c(C)cccc1C (stereo not drawn) [Bupivacaine, bupivacaine]
rate of decrease in pHm, increase in PmCO2 and decrease in PmO2 compared to sham (15 minutes of cardiac fibrillation at the end of the study, four dogs per group, FIG. 1): rate of decrease in pHm and increase in PmCO2 was faster in sham treated dogs, but the rate of decrease in PmO2 was slower compared to bupivacaine treated dogs | acidosis in myocardial tissue (dogs made hypotensive by bupivacaine, prolonged hypotension, hypoperfusion and cardiac tissue hypoxia): do not develop the expected acidosis in myocardial tissue | systemic blood pressure (BP) after bupivacaine [1]: < 40 mmHg | PH decrease (myocardial tissue) [2]: 0.31 ± 0.08 | PmO2 decrease [2]: 52 ± 16 mmHg | Rate of decrease (PmO2) [2]: 22 ± 5 mmHg/min | Time (of PmO2 decrease) [2]: 2.5 ± 0.9 min | Rate of Decrease (myocardial pH) [3]: 0.02 ± 0.01 min − 1 | Time (of pH decrease) [3]: 13.8 ± 5.1 min | rate of decrease in PmO2 compared to sham treated dogs (ventricular fibrillation, Table 2 experiment): higher rate in bupivacaine treated compared to sham treated dogs, but this difference was not significant | factor by which the rate of decrease in pH during fibrillation was reduced (ventricular fibrillation, versus sham): four
